Here are results for one compound from paper PMC4588880, “Three genes encoding AOP2, a protein involved in aliphatic glucosinolate biosynthesis, are differentially expressed in Brassica rapa” (Journal of Experimental Botany, 2015).

Structures are written as SMILES.

Common to all, as to assay: HPLC of desulfoglucosinolates, conversion to 3-butenyl glucosinolate
What all share (format): biochemical
Holding throughout (details): 10 mM 2-oxoglutarate, 10 mM ascorbate, 200 uM FeSO4, 200 mM sucrose, 28 °C, 4 h

Experiment [1] concerns the target T1, BrAOP2.1 (Brassica rapa, UniProt M4EZD7).
T1 construct: full-length 439 aa, N-terminal thioredoxin/His fusion (pET-32a), E. coli BL21(DE3), Ni-NTA; chromosome A09
T1 sequence (M4EZD7 1-439): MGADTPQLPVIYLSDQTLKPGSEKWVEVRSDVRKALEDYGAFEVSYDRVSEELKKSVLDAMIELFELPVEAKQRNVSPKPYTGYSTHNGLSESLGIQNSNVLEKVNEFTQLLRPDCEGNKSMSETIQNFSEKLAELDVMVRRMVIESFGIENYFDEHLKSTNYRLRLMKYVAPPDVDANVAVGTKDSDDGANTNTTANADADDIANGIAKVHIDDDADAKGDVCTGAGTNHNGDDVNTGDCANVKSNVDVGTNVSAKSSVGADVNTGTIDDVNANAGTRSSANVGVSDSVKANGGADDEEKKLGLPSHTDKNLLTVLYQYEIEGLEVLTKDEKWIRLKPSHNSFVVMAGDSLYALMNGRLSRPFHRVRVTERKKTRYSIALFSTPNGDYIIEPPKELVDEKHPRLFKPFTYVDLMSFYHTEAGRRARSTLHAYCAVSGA

Experiment [2] concerns the target T2, BrAOP2.3 (Brassica rapa, UniProt M4DPT0).
T2 construct: full-length 428 aa, N-terminal thioredoxin/His fusion (pET-32a), E. coli BL21(DE3), Ni-NTA; chromosome A02
T2 sequence (M4DPT0 1-428): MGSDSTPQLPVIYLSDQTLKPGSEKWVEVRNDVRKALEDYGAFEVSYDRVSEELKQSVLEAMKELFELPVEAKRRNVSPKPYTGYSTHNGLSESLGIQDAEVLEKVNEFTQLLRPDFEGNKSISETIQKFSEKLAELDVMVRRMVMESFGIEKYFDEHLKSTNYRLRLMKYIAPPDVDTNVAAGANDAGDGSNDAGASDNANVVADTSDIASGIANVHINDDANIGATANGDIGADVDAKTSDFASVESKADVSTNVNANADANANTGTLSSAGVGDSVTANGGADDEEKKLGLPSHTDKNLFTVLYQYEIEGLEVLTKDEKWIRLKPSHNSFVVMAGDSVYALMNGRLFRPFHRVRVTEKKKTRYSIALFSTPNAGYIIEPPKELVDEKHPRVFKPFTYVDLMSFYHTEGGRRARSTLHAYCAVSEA

Experiment [3] deals with T3, BrAOP2.1 (Brassica rapa, UniProt M4EZD7, H308L).
T3 construct: full-length 439 aa, N-terminal thioredoxin/His fusion (pET-32a), E. coli BL21(DE3), Ni-NTA; chromosome A09
T3 sequence (M4EZD7 entry or part of it H308L): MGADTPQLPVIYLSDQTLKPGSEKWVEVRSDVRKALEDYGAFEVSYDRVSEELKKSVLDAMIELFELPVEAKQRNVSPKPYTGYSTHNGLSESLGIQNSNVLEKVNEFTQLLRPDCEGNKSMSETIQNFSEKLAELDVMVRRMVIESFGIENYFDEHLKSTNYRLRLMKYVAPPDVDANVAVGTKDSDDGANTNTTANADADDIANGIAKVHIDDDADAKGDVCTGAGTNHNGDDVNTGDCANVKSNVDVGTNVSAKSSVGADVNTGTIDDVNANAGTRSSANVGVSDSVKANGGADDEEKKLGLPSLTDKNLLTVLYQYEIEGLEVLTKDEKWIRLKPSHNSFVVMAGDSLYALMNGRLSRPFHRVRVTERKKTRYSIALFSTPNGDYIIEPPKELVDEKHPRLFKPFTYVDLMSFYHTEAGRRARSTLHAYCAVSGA

As for `C[S+]([O-])CCCC/C(=N/OS(=O)(=O)O)S[C@@H]1O[C@H](CO)[C@@H](O)[C@H](O)[C@H]1O` (stereo partly drawn) [glucoraphanin], the “HPLC of desulfoglucosinolates, conversion to 3-butenyl glucosinolate” value in experiment [1] is “all three BrAOP2 proteins successfully catalysed the conversion of GRA to NAP”; in experiment [2], “all three BrAOP2 proteins successfully catalysed the conversion of GRA to NAP”; in experiment [3] it was “the purified H308L mutant enzyme was shown to still catalyse the conversion of GRA”.
